Experimental data: US8729224B2, “Melanocortin receptor-specific peptides for treatment of female sexual dysfunction” (Palatin Technologies, Inc., priority 2008, dated 2014)

Assays:
hMC4-R [1] = target: T1, hMC4-R (Homo sapiens, UniProt P32245); experiment: Competitive inhibition binding assay using NDP-α-MSH, MC4-R; details: for Ki: competitive studies using NDP-α-MSH, human recombinant receptor, average of studies
T1 construct: expressed in transfected cells; host or cells: HEK-293
Protocol: A competitive inhibition binding assay is performed using membrane homogenates prepared from HEK-293 cells that express recombinant hMC4-R, hMC3-R, or hMC5-R, and from B-16 mouse melanoma cells (containing endogenous MC1-R). In some instances, HEK-293 cells that express recombinant hMC1-R were employed. In the examples that follow, all MC3-R, MC4-R and MC5-R values are for human recombinant receptors. MC1-R values are for B-16 mouse melanoma cells, unless the heading is “hMC1-R”, in which case the value is for human recombinant MC1-R. Assays were performed in 96 well GF/B Millipore multiscreen filtration plates (MAFB NOB10) pre-coated with 0.5% bovine serum albumin (Fraction V). Membrane homogenates were incubated with 0.2 nM (for hMC4-R) 0.4 nM (for MC3-R and MC5-R) or 0.1 nM (for mouse B16 MC1-R or hMC1-R) [I^125]-NDP-α-MSH (Perkin Elmer) and increasing concentrations of cyclic peptides of the present invention in buffer containing 25 mM HEPES buffer (pH 7.5) with 100 mM NaCl, 2 mM CaCl2, 2 mM MgCl2, 0.3 mM 1,10-phenanthroline, and 0.2% bovine serum albumin. After incubation for 60 minutes at 37° C., the assay mixture was filtered and the membranes washed three times with ice-cold buffer. Filters were dried and counted in a gamma counter for bound radioactivity. […] Maximal specific binding (100%) was defined as the difference in radioactivity (cpm) bound to cell membranes in the absence and presence of 1 μM NDP-α-MSH. […] Ki values for cyclic peptides of the present invention were determined using Graph-Pad Prism® curve-fitting software. […]
Alternatively, a competitive inhibition binding assay was performed employing Eu-NDP-α-MSH (PerkinElmer Life Sciences catalog No. AD0225) with determination by time-resolved fluorometry (TRF) of the lanthanide chelate. […] The plates were incubated on a shaker for 15 minutes and read at 340 nm excitation and 615 nm emission wavelengths. […] Ki values were determined by curve-fitting with Graph-Pad Prism® software using a one-site fixed-slope competition binding model. […]

hMC4-R [2] = target: T1, hMC4-R; experiment: Assay for agonist activity (cAMP accumulation in HEK-293 cells expressing hMC4-R); assay type: cell-based
Protocol: Accumulation of intracellular cAMP is examined as a measure of the ability of the cyclic peptides of the present invention to elicit a functional response in HEK-293 cells that express MC4-R. Confluent HEK-293 cells that express recombinant hMC4-R were detached from culture plates by incubation in enzyme-free cell dissociation buffer. Dispersed cells were suspended in Earle's Balanced Salt Solution containing 10 mM HEPES (pH 7.5), 1 mM MgCl2, 1 mM glutamine, 0.5% albumin and 0.3 mM 3-isobutyl-1-methyl-xanthine (IBMX), a phosphodiesterase inhibitor. The cells were plated in 96-well plates at a density of 0.5×10^5 cells per well and pre-incubated for 30 minutes. Cells were exposed for 1 hour at 37° C. to test cyclic peptides of the present invention dissolved in DMSO (final DMSO concentration of 1%) at a concentration range of 0.05-5000 nM in a total assay volume of 200 μL. NDP-α-MSH was used as the reference agonist. At the end of the incubation period, cells were disrupted by the addition of 50 μL of lysis buffer (cAMP EIA kit, Amersham) followed by vigorous pipetting. Levels of cAMP in the lysates were determined using a cAMP EIA kit (Amersham). Data analysis was performed by nonlinear regression analysis with Graph-Pad Prism® software. The maximum efficacies of the cyclic peptides of the present invention were compared to that achieved by the reference melanocortin agonist NDP-αMSH.

[3] = tested on: penile erection in male Sprague-Dawley rats; experiment: Induction of penile erection in male rats; assay type: in vivo, rat; details: for observed spontaneous erections compared to vehicle controls: rat model
systolic blood pressure = details: rat, in vivo
Description: In other studies, including comparisons of the same quantities of the cyclic peptide of Example 8.1 and bremelanotide by the same routes of administration, substantially similar results were obtained. […] In other studies, including comparisons of the same quantities of the cyclic peptide of Example 8.4 and bremelanotide by the same routes of administration, substantially similar results were obtained.

[4] = target: T2, MC1-R (B-16 mouse melanoma cells) (Mus musculus, UniProt Q01727); experiment: Competitive inhibition binding assay using NDP-α-MSH, MC1-R; details: competitive studies using NDP-α-MSH
T2 construct: from B-16 mouse melanoma cells (containing endogenous MC1-R); endogenous in cells; host or cells: B-16 mouse melanoma cells
Protocol: (§1) A competitive inhibition binding assay is performed using membrane homogenates prepared from HEK-293 cells that express recombinant hMC4-R, hMC3-R, or hMC5-R, and from B-16 mouse melanoma cells (containing endogenous MC1-R). In some instances, HEK-293 cells that express recombinant hMC1-R were employed. In the examples that follow, all MC3-R, MC4-R and MC5-R values are for human recombinant receptors. MC1-R values are for B-16 mouse melanoma cells, unless the heading is “hMC1-R”, in which case the value is for human recombinant MC1-R. Assays were performed in 96 well GF/B Millipore multiscreen filtration plates (MAFB NOB10) pre-coated with 0.5% bovine serum albumin (Fraction V). […] Filters were dried and counted in a gamma counter for bound radioactivity. […] Maximal specific binding (100%) was defined as the difference in radioactivity (cpm) bound to cell membranes in the absence and presence of 1 μM NDP-α-MSH. […] Ki values for cyclic peptides of the present invention were determined using Graph-Pad Prism® curve-fitting software. […]

hMC3-R = target: T3, hMC3-R (Homo sapiens, UniProt P41968); experiment: Competitive inhibition binding assay using NDP-α-MSH, MC3-R; details: competitive studies using NDP-α-MSH; human recombinant receptor
T3 construct: expressed in transfected cells; host or cells: HEK-293
Protocol: as §1
(§2) Alternatively, a competitive inhibition binding assay was performed employing Eu-NDP-α-MSH (PerkinElmer Life Sciences catalog No. AD0225) with determination by time-resolved fluorometry (TRF) of the lanthanide chelate. […] The plates were incubated on a shaker for 15 minutes and read at 340 nm excitation and 615 nm emission wavelengths. […]

hMC5-R = target: T4, hMC5-R (Homo sapiens, UniProt P33032); experiment: Competitive inhibition binding assay using NDP-α-MSH, MC5-R; details: competitive studies using NDP-α-MSH; human recombinant receptor
T4 construct: expressed in transfected cells; host or cells: HEK-293
Protocol: as §1, §2

T1 sequence (P32245 whole entry): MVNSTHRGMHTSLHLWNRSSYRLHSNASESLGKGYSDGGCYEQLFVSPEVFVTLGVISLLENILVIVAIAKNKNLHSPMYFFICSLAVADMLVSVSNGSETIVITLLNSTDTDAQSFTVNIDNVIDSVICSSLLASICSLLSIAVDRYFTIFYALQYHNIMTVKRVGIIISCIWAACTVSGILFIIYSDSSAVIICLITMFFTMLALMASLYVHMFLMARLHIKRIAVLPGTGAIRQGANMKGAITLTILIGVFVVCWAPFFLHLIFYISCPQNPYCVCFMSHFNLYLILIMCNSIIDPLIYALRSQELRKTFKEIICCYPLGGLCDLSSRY
T2 sequence (Q01727 whole entry): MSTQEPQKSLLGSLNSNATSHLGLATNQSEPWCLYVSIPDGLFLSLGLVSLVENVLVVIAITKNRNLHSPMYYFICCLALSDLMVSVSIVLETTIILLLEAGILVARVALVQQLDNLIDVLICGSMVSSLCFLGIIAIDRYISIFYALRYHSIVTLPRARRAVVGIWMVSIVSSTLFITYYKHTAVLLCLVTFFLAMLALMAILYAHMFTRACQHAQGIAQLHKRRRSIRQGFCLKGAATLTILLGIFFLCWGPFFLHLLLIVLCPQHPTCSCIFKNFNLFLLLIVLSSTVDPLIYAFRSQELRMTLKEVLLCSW
T4 sequence (P33032 whole entry): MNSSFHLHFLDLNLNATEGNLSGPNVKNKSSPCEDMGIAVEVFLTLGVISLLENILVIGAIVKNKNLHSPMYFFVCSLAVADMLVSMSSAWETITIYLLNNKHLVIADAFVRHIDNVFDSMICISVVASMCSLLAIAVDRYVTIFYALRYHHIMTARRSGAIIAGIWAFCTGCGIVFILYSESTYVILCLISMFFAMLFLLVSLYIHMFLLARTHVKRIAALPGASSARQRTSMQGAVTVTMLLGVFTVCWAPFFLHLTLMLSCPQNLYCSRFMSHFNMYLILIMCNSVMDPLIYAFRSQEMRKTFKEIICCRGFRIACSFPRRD
T3 sequence (P41968 whole entry): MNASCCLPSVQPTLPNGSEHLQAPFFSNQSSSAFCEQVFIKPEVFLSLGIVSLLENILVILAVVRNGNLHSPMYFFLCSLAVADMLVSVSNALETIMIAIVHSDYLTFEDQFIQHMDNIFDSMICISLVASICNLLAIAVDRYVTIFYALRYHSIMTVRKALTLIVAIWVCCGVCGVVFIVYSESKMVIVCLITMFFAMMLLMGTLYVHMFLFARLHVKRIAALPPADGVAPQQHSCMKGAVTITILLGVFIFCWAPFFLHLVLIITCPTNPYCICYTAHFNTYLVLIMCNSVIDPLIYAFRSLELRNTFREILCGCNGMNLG

CC(=O)N[C@@H](CCCNC(=N)N)C(=O)N[C@H]1CC(=O)NCCCC[C@@H](C(N)=O)NC(=O)[C@H](Cc2c[nH]c3ccccc23)NC(=O)[C@H](CCCNC(=N)N)NC(=O)[C@@H](Cc2ccccc2)NC(=O)[C@H](CCN)NC1=O [Example 8.1, Ac-Arg-cyclo(Asp-Dab-D-Phe-Arg-Trp-Lys)-NH2]
receptor selectivity in binding (hMC4-R [1]; MC1-R, MC3-R, MC4-R and MC5-R binding compared): selective for MC4-R | functional status at MC4-R (hMC4-R [2]; functional studies): agonist | penile erections per rat per hour compared to bremelanotide (companion studies) ([3]; 3.0 μmol/kg subcutaneous vs bremelanotide 1 μmol/kg IV): same or higher penile erection results | observed spontaneous erections compared to vehicle controls ([3]; subcutaneous): statistically significant increase | spontaneous erections per rat in one hour ([3]; subcutaneous, 0.3 mg/kg, n=7): 2.286±0.286 | spontaneous erections per rat in one hour ([3]; subcutaneous, 1.0 mg/kg, n=7): 4.571±1.088 | increase of systolic blood pressure compared to a dose of bremelanotide producing comparable penile erection results (systolic blood pressure): less increase of systolic blood pressure

CC(=O)N[C@@H](CCCNC(=N)N)C(=O)N[C@H]1CCC(=O)NCCC[C@@H](C(N)=O)NC(=O)[C@H](Cc2c[nH]c3ccccc23)NC(=O)[C@H](CCCNC(=N)N)NC(=O)[C@@H](Cc2ccccc2)NC(=O)[C@H](CCN)NC1=O [Example 8.3, Ac-Arg-cyclo(Glu-Dab-D-Phe-Arg-Trp-Orn)-NH2]
Ki (hMC4-R [1]): 0.65 nM | Ki [4]: 1 nM | Ki (hMC3-R): 74 nM | Ki (hMC5-R): 300 nM | functional status at MC4-R (hMC4-R [2]; functional studies): agonist

CC(=O)N[C@@H](CCCNC(=N)N)C(=O)N[C@H]1CCC(=O)NCCC[C@@H](C(=O)O)NC(=O)[C@H](Cc2c[nH]c3ccccc23)NC(=O)[C@H](CCCNC(=N)N)NC(=O)[C@@H](Cc2ccccc2)NC(=O)[C@H](CCN)NC1=O [Example 8.4, Ac-Arg-cyclo(Glu-Dab-D-Phe-Arg-Trp-Orn)-OH]
Ki (hMC4-R [1]): 8 nM | Ki [4]: 4 nM | Ki (hMC3-R): 410 nM | Ki (hMC5-R): 2370 nM | Emax (hMC4-R [2]; HEK293, NDP-α-MSH is 100%, read-out: intrinsic activity at MC4-R): 91% | functional status at MC4-R (hMC4-R [2]; functional studies): agonist | EC50 (hMC4-R [2]; functional studies, cAMP, average of studies, read-out: EC50 at MC4-R): 3 nM | penile erections per rat per hour compared to bremelanotide (companion studies) ([3]; 1 mg/kg subcutaneous vs bremelanotide 1 mg/kg IV): same or higher penile erection results | observed spontaneous erections compared to vehicle controls ([3]; subcutaneous): statistically significant increase | spontaneous erections per rat in one hour ([3]; subcutaneous, 0.3 mg/kg, n=7): 2.571±0.685 | spontaneous erections per rat in one hour ([3]; subcutaneous, 1.0 mg/kg, n=7): 5.286±0.918 | increase of systolic blood pressure compared to a dose of bremelanotide producing comparable penile erection results (systolic blood pressure): less increase of systolic blood pressure

CCCC[C@H](NC(C)=O)C(=O)N[C@H]1CC(=O)NCCCC[C@@H](C(=O)O)NC(=O)[C@H](Cc2c[nH]c3ccccc23)NC(=O)[C@H](CCCN=C(N)N)NC(=O)[C@@H](Cc2ccccc2)NC(=O)[C@H](Cc2cnc[nH]2)NC1=O [bremelanotide, Ac-Nle-cyclo(Asp-His-D-Phe-Arg-Trp-Lys)-OH, reference compound]
spontaneous erections per rat in one hour ([3]; IV, 1 mg/kg, n=7, positive control): 4±0.535
